Measured values as given in patent US12358983B2, “Combination of anti CD19 antibody with a BCL-2 inhibitor and uses thereof” (Incyte Corporation, priority 2016, dated 2025).

Key:
[1] = tested on: TOLEDO human lymphoma cell tumors; experiment: Subcutaneous human lymphoma cell xenograft model in SCID mice; settings: MOR00208 11 mg/kg i.p. twice weekly
Protocol: Toledo cell line and culture medium were purchased and provided by Oncodesign. […] The cells are adherent to plastic flasks.
A statistical test (analysis of variance, ANOVA) was performed to test for homogeneity between groups. MOR208 was injected intraperitoneally (IP) into the peritoneal cavity of mice. Combined substance was administered by oral gavage (per os, PO) via a gavage tube.
The treatment schedule initiated at D23 was as follows:
Animals from group 1 received one daily PO administration of PEP and one IP injection twice a week of PBS.
Animals from group 4 received one IP injection of MOR208 at 11 mg/kg/inj on D23, D27, D30, D34, D37 and D41 followed by a single IP injection of MOR208 at 11 mg/kg/inj on D48 (twice a week).
The viability and behavior were recorded every day. Body weights and tumor volume were measured twice a week. The length and width of the tumor were measured twice a week with calipers and the volume of the tumor was estimated by the formula:

MEC-1 cells = experiment: Cytotoxicity (ADCC assay with NK effector cells) of MOR00208 and venetoclax alone and in combination in MEC-1 cells; type: cell-based
Text: Cell lines tested: MEC-1 cells (DSMZ# ACC497). Culture conditions of cell lines used are according to supplier's information. Cell Medium: lscove's Modified Dulbecco's Medium (IMDM), Invitrogen, Cat No.: 31980; RPMI1640, Invitrogen, Cat No.: 31870; GlutaMAX, Invitrogen, CAT No.: 35050; FCS: Sigma CAT No.: F7524 LOT No.: 111M3396. NKs: RPMI1640, with GlutaMAX, Invitrogen, Cat No.: 31870, 10% FCS; Biocoll: Biochrome AG CAT No.: L6115 LOT No.: 0034D; MACS NK cell isolation kit: Miltenyi Biotec CAT No.: 130-092-657 LOT No.: 5150402327; venetoclax: Selleck Chem. CAT No.: S8048 LOT No.: S804803; FCS: Sigma CAT No.: F7524 LOT No.: 111M3396; and RefmAb33 (anti-RSV) with same Fc region as MOR00208.
The cytotoxic potential of MOR00208 and venetoclax alone and in combination were tested in the MEC-1 cell line (CLL). Target cell killing is measured using the following parameters: venetoclax mono treatment at concentrations of 3 μM, 6.5 μM, and 10 μM; MOR00208 mono treatment at concentrations of 0.01 pM, 0.1 pM, 1 pM, 10 pM, 100 pM and 10 nM, and the combination treatment of the listed venetoclax and MOR00208 concentrations. The following are used as controls: RefnnAb33, NK cells alone, MEC-1 cells alone or DMSO. In the venetoclax mono groups as well as in the MOR00208+venetoclax combination groups, target cells were pretreated with venetoclax or with DMSO control for 24 hours followed by removal of the dead cells prior to the ADCC assay. A dead cell removal kit was used to remove cells killed by the cytotoxic effect of venetoclax. The dead cell removal kit was implemented to mimick the removal of dead cells that also occurs in vivo and to prevent false negative interference of the dead cells with the subsequent ADCC assay. For the ADCC assay, target cells are counted and stained using CFSE at a final concentration of 1 μg/mL. For the control group, i.e. DMSO treated target cells, the effector: target (E:T) cell ratio was adjusted to 2:1, i.e. 1×10E6/nnL effector cells (NK cells) and 5×10E5/mL target cells (MEC-1 cells). […] The ADCC assays were performed as follows: using 96 well plates, 100 μL of MEC-1 target cell suspension was added per well, followed by 100 μL NK effector cell suspension per well. Mixed cell suspensions were centrifuged and resuspended in 100 μL antibody containing medium or the according control solution. The antibodies were diluted in a range of 10 nM-0.01 pM (corresponds to 1.5 μg/mL-1.5 pg/mL) in medium. The ADCC assays were incubated for 2 hours in a CO2-incubator at 37° C. After 10 minutes incubation on ice, 50 μL DAPI solution was added to each well (final concentration 1 μg/mL) and incubated for additional 10 minutes on ice. The ADCC measurements were performed on a BD FACSVerse instrument. Dead target cells were identified as DAPI positive cells.
Combination Index (CI) calculations are completed in order to determine synergy of the combination of the exemplified anti-CD19 antibody and venetoclax as compared to MOR00208 and venetoclax alone. Such calculations are described in Ting-Chao Chou, Theoretical Basis, Experimental Design, and Computerized Simulation of Synergism and Antagonism in Drug Combination Studies, Pharmacol Rev 58:621-681 (2006), which is incorporated by reference in its entirety and Chou TC, Talalay P, Quantitative analysis of dose-effect relationships: the combined effects of multiple drugs or enzyme inhibitors. Adv Enzyme Regul 22: 27-55 (1984), which is incorporated by reference in its entirety. The methods of Chou-Talalay are carried out using the CI-isobol method.
The median-effect equation models the effect of an inhibitor (such as a drug) as Fa/Fu=(D/D50)^m, where D is the dose, Fa and Fu is the fraction of the system affected and unaffected by the dose D (Fa+Fu=1); D50 is the dose producing the median effect (e.g. IC50, ED50, LD50). The constant m determines the shape of the dose-effect curve.

## MOR00208: anti-CD19 antibody; heavy chain SEQ ID NO: 14, light chain SEQ ID NO: 15
[1]
  Median Tumor Doubling Time: 8.0 days
[1]; humane endpoint tumor volume 2000 mm3
  Median Survival (Days Post-Randomization): 25.3 days
[1]; vs. PEP/PBS Control
  Median % Increase in Doubling Time (IDT): 18%
  Median % Increase in Lifespan (ILS): 20%
MEC-1 cells; Exp 1, MOR00208 1.50E+00 μg/mL
  Actual MOR00208 Effect: 69.4 % dead cells
MEC-1 cells; Exp 1, MOR00208 1.50E−02 μg/mL
  Actual MOR00208 Effect: 66.8 % dead cells
MEC-1 cells; Exp 1, MOR00208 1.50E−03 μg/mL
  Actual MOR00208 Effect: 43.4 % dead cells
MEC-1 cells; Exp 1, MOR00208 1.50E−04 μg/mL
  Actual MOR00208 Effect: 22.8 % dead cells
MEC-1 cells; Exp 1, MOR00208 1.50E−05 μg/mL
  Actual MOR00208 Effect: 17.4 % dead cells
MEC-1 cells; Exp 1, MOR00208 1.50E−06 μg/mL
  Actual MOR00208 Effect: 15.3 % dead cells
MEC-1 cells; Exp 1, same effect as MOR00208 1.50E+00 μg/mL + venetoclax 3.0 μM
  Theoretical MOR00208 Dose: * 1.00E+03^ μg/mL
MEC-1 cells; Exp 1, same effect as MOR00208 1.50E+00 μg/mL + venetoclax 6.5 μM
  Theoretical MOR00208 Dose: * 1.00E+03^ μg/mL
MEC-1 cells; Exp 1, same effect as MOR00208 1.50E+00 μg/mL + venetoclax 10.0 μM
  Theoretical MOR00208 Dose: * 1.00E+03^ μg/mL
MEC-1 cells; Exp 1, same effect as MOR00208 1.50E−02 μg/mL + venetoclax 3.0 μM
  Theoretical MOR00208 Dose: 0.0304 µg/mL
MEC-1 cells; Exp 1, same effect as MOR00208 1.50E−02 μg/mL + venetoclax 6.5 μM
  Theoretical MOR00208 Dose: * 1.00E+03^ μg/mL
MEC-1 cells; Exp 1, same effect as MOR00208 1.50E−02 μg/mL + venetoclax 10.0 μM
  Theoretical MOR00208 Dose: * 1.00E+03^ μg/mL
MEC-1 cells; Exp 1, same effect as MOR00208 1.50E−03 μg/mL + venetoclax 3.0 μM
  Theoretical MOR00208 Dose: 0.00125 µg/mL
MEC-1 cells; Exp 1, same effect as MOR00208 1.50E−03 μg/mL + venetoclax 6.5 μM
  Theoretical MOR00208 Dose: 0.00404 µg/mL
MEC-1 cells; Exp 1, same effect as MOR00208 1.50E−03 μg/mL + venetoclax 10.0 μM
  Theoretical MOR00208 Dose: 0.00914 µg/mL
MEC-1 cells; Exp 1, same effect as MOR00208 1.50E−04 μg/mL + venetoclax 3.0 μM
  Theoretical MOR00208 Dose: 0.000132 µg/mL
MEC-1 cells; Exp 1, same effect as MOR00208 1.50E−04 μg/mL + venetoclax 6.5 μM
  Theoretical MOR00208 Dose: 0.00041 µg/mL
MEC-1 cells; Exp 1, same effect as MOR00208 1.50E−04 μg/mL + venetoclax 10.0 μM
  Theoretical MOR00208 Dose: 0.000543 µg/mL
MEC-1 cells; Exp 1, same effect as MOR00208 1.50E−05 μg/mL + venetoclax 3.0 μM
  Theoretical MOR00208 Dose: 1.41e-05 µg/mL
MEC-1 cells; Exp 1, same effect as MOR00208 1.50E−05 μg/mL + venetoclax 6.5 μM
  Theoretical MOR00208 Dose: 8.47e-05 µg/mL
MEC-1 cells; Exp 1, same effect as MOR00208 1.50E−05 μg/mL + venetoclax 10.0 μM
  Theoretical MOR00208 Dose: 0.000163 µg/mL
MEC-1 cells; Exp 1, same effect as MOR00208 1.50E−06 μg/mL + venetoclax 10.0 μM
  Theoretical MOR00208 Dose: 2.33e-05 µg/mL
MEC-1 cells; Exp 2, MOR00208 1.50E+00 μg/mL
  Actual MOR00208 Effect: 74.8 % dead cells
MEC-1 cells; Exp 2, MOR00208 1.50E−02 μg/mL
  Actual MOR00208 Effect: 69.6 % dead cells
MEC-1 cells; Exp 2, MOR00208 1.50E−03 μg/mL
  Actual MOR00208 Effect: 55.9 % dead cells
MEC-1 cells; Exp 2, MOR00208 1.50E−04 μg/mL
  Actual MOR00208 Effect: 40.3 % dead cells
MEC-1 cells; Exp 2, MOR00208 1.50E−05 μg/mL
  Actual MOR00208 Effect: 34.5 % dead cells
MEC-1 cells; Exp 2, MOR00208 1.50E−06 μg/mL
  Actual MOR00208 Effect: 29.7 % dead cells
MEC-1 cells; Exp 2, same effect as MOR00208 1.50E+00 μg/mL + venetoclax 3.0 μM
  Theoretical MOR00208 Dose: * 1.00E+03^ μg/mL
MEC-1 cells; Exp 2, same effect as MOR00208 1.50E+00 μg/mL + venetoclax 6.5 μM
  Theoretical MOR00208 Dose: * 1.00E+03^ μg/mL
MEC-1 cells; Exp 2, same effect as MOR00208 1.50E+00 μg/mL + venetoclax 10.0 μM
  Theoretical MOR00208 Dose: * 1.00E+03^ μg/mL
MEC-1 cells; Exp 2, same effect as MOR00208 1.50E−02 μg/mL + venetoclax 3.0 μM
  Theoretical MOR00208 Dose: * 1.00E+03^ μg/mL
